Results from patent publication US11986480B2, “Heterocyclic compound” (TOHOKU UNIVERSITY, priority 2017, dated 2024).
Each block holds one molecule with its values, some of them ahead of it.

Legend:
[1] = target: T1, Brd4 (Homo sapiens, UniProt O60885); assay: Test Example 3: HeLa cells, Western blot Brd4/actin (Testing Method C); assay type: cell-based; set-up: endogenous in cells; host or cells: HeLa; conditions: 24 hours, 1 or less = degradation promoted
Procedure: (§1) Test Example 3: Evaluation Using HeLa Cell (Testing Method C)
(§2) HeLa cells were inoculated to Dulbecco's Modified Eagle Medium (DMEM) and cultured for 24 hours. A test compound (specifically, compounds of Examples 47 to 52, 59 and 60) was added thereto at the final concentration shown in Table 2, followed by incubation for 24 hours under conditions of 37° C./5% CO2. The cells were washed with PBS three times and treated with a cell lysis solution containing a proteolytic enzyme inhibitor to obtain a cell extract. The cell extract was subjected to SDS-PAGE. After the electrophoresis, Brd4, FKBP12 or MetAP2 and actin were detected by Western blot. The ratio of the Brd4, FKBP12 or MetAP2/actin value of the drug-treated cells to the Brd4, FKBP12 or MetAP2/actin value of a control group in drug-untreated cells was regarded as an activity value. A value of 1 or less represents that degradation of Brd4, FKBP12 or MetAP2 was promoted.

[2] = tested on: EmGFP-HaloTag; assay: Test Example 5: Atg5+/+ MEF cells overexpressing EmGFP-HaloTag, Western blot GFP/actin; assay type: cell-based, mouse; conditions: Atg5 WT MEF, 10 μM
Procedure: (§3) Test Example 5: Evaluation Using Atg5KO MEF
(§4) Atg5^−/− mouse embryonic fibroblast (MEF) cells or Atg5^+/+ MEF cells were inoculated to Dulbecco's Modified Eagle Medium (DMEM) and cultured for 24 hours. Cells overexpressing EmGFP-HaloTag were obtained by transfection with a plasmid pCMV-EmGFP-HaloTag (SEQ ID NO: 1) encoding EmGFP-HaloTag. On the next day, the compound of Example 56 was added thereto at a final concentration of 10 μM, followed by incubation for 24 hours under conditions of 37° C./5% CO2. The cells were washed with PBS three times and treated with a cell lysis solution containing a proteolytic enzyme inhibitor to obtain a cell extract. The cell extract was subjected to SDS-PAGE. After the electrophoresis, GFP and actin were detected by Western blot. The ratio of the GFP/actin value of the drug-treated cells to the GFP/actin value of a control group in drug-untreated cells was regarded as an activity value. A value of 1 or less represents that degradation of EmGFP-HaloTag was promoted.

[3] = tested on: EmGFP-HaloTag; assay: Test Example 5: Atg5-/- MEF cells overexpressing EmGFP-HaloTag, Western blot GFP/actin; assay type: cell-based, mouse; conditions: Atg5 KO MEF, 10 μM
Procedure: as §3, §4

[4] = tested on: EmGFP-HaloTag; assay: Test Example 1: HeLa cells stably expressing EmGFP-HaloTag, Western blot GFP/actin (Testing Method A); assay type: cell-based; conditions: 10 uM, 24 hours, 1 or less = degradation promoted
Procedure: Test Example 1: Evaluation Method Using Cell Stably Expressing EmGFP-HaloTag (Testing Method A)
HeLa cells stably expressing EmGFP-HaloTag were inoculated to Dulbecco's Modified Eagle Medium (DMEM) and cultured for 24 hours. Then, a test compound (specifically, compounds of Examples 1 to 7, 9 to 11, 13 to 15, 17 to 20, 24 to 27, 29, 32 to 33, 36 to 42, 44 to 46 and 56) was added thereto at the final concentration shown in Table 2, followed by incubation for 24 hours under conditions of 37° C./5% CO2. The cells were washed with PBS three times and treated with a cell lysis solution containing a proteolytic enzyme inhibitor to obtain a cell extract. The cell extract was subjected to SDS-PAGE. After the electrophoresis, GFP and actin were detected by Western blot. The ratio of the GFP/actin value of the drug-treated cells to the GFP/actin value of a control group in drug-untreated cells was regarded as an activity value. A value of 1 or less represents that degradation of EmGFP-HaloTag was promoted.

[5] = target: T2, FKBP12 (Homo sapiens, UniProt P62942); assay: Test Example 3: HeLa cells, Western blot FKBP12/actin (Testing Method C); assay type: cell-based; conditions: FKBP12, 1 uM, 24 hours, 1 or less = degradation promoted
T2 construct: endogenous in cells; host or cells: HeLa
T2 sequence (P62942 whole entry): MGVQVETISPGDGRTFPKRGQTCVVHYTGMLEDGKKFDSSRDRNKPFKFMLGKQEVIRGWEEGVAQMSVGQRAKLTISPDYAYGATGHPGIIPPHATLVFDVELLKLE
Procedure: as §1, §2

[6] = target: T1, Brd4; assay: Test Example 4: A549 cells, Western blot Brd4/actin (Testing Method D); assay type: cell-based; set-up: endogenous in cells; conditions: BRD4, 1 uM, 24 hours, 1 or less = degradation promoted
Procedure: Test Example 4: Evaluation Using A549 Cell (Testing Method D)
as §2, with “A549” for “HeLa”, “57” for “47 to 52, 59”, “58)” for “60)”, “Brd4” for “Brd4, FKBP12 or MetAP2”, “Brd4/actin” for “Brd4, FKBP12 or MetAP2/actin”

[7] = target: T3, MetAP2 (Homo sapiens, UniProt P50579); assay: Test Example 3: HeLa cells, Western blot MetAP2/actin (Testing Method C); assay type: cell-based; conditions: MetAP2, 0.1 uM, 24 hours, 1 or less = degradation promoted
T3 construct: endogenous in cells; host or cells: HeLa
T3 sequence (P50579 whole entry): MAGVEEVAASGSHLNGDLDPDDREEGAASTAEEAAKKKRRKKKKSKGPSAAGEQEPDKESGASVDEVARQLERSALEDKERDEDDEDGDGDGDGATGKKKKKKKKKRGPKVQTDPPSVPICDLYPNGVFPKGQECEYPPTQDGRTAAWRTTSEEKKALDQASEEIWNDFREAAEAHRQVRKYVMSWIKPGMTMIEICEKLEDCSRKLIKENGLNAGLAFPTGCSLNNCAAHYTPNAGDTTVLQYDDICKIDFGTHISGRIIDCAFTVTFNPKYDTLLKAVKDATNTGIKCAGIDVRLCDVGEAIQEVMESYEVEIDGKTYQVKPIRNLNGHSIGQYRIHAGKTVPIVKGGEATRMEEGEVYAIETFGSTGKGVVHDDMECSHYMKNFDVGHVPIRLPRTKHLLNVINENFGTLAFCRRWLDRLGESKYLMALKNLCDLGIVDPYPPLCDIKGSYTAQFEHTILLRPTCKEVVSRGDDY
Procedure: as §1, §2

Activity value (Brd4/actin of drug-treated cells relative to drug-untreated control) ([1]; BRD4, 10 uM): 0.8
SMILES: Cc1sc2c(c1C)C(c1ccc(Cl)cc1)=N[C@@H](CC(=O)NCCOCCOCCOCCNC(=O)c1cccc(-c3nc4c(=O)[nH]c(N)nc4n3Cc3ccc(F)cc3)c1)c1nnc(C)n1-2 [Example 48, 3-(2-Amino-9-(4-fluorobenzyl)-6-oxo-6,9-dihydro-1H-purin-8-yl)-N-(14-((6S)-4-(4-chlorophenyl)-2,3,9-trimethyl-6H-thieno[3,2-f][1,2,4]triazolo[4,3-a][1,4]diazepin-6-yl)-13-oxo-3,6,9-trioxa-12-azatetradec-1-yl)benzamide]

SMILES: CC(=O)N[C@@H](CSc1nc2c(=O)[nH]c(N)nc2n1Cc1ccc(F)cc1)C(=O)NCCOCCOCCOCCOCCOCCCCCCCl [Example 56, N^2-Acetyl-S-(2-amino-9-(4-fluorobenzyl)-6-oxo-6,9-dihydro-1H-purin-8-yl)-N-(21-chloro-3,6,9,12,15-pentaoxahenicos-1-yl)-L-cysteinamide]
Activity value (GFP/actin of drug-treated cells relative to drug-untreated control) ([2]; 0h): 1.0
Activity value (GFP/actin of drug-treated cells relative to drug-untreated control) ([2]; 24 h): 0.3
Activity value (GFP/actin of drug-treated cells relative to drug-untreated control) ([3]; 0h): 1.0
Activity value (GFP/actin of drug-treated cells relative to drug-untreated control) ([3]; 24 h): 1.1
Activity value (GFP/actin of drug-treated cells relative to drug-untreated control) [4]: 0.55

Activity value (Brd4/actin of drug-treated cells relative to drug-untreated control) ([1]; BRD4, 1 uM): 0.6
SMILES: CC(=O)N[C@@H](CSc1nc2c(=O)[nH]c(N)nc2n1Cc1ccc(F)cc1)C(=O)NCCOCCOCCOCCNC(=O)C[C@@H]1N=C(c2ccc(Cl)cc2)c2c(sc(C)c2C)-n2c(C)nnc21 [Example 51, N^2-Acetyl-S-(2-amino-9-(4-fluorobenzyl)-6-oxo-6,9-dihydro-1H-purin-8-yl)-N-(14-((6S)-4-(4-chlorophenyl)-2,3,9-trimethyl-6H-thieno[3,2-f][1,2,4]triazolo[4,3-a][1,4]diazepin-6-yl)-13-oxo-3,6,9-trioxa-12-azatetradec-1-yl)-L-cysteinamide]

Activity value (FKBP12/actin of drug-treated cells relative to drug-untreated control) [5]: 0.5
SMILES: CCC(C)(C)C(=O)C(=O)N1CCCCC1C(=O)O[C@H](CCc1ccc(OC)c(OC)c1)c1cccc(NC(=O)CCC(=O)NCCCOCCOCCOCCCNC(=O)[C@H](CSc2nc3c(=O)[nH]c(N)nc3n2Cc2ccc(F)cc2)NC(C)=O)c1 (stereo partly drawn) [Example 59, (1R)-1-(3-((18-((N-Acetyl-S-(2-amino-9-(4-fluorobenzyl)-6-oxo-6,9-dihydro-1H-purin-8-yl)-L-cysteinyl)amino)-4-oxo-9,12,15-trioxa-5-azaoctadecan-1-oyl)amino)phenyl)-3-(3,4-dimethoxyphenyl)propyl 1-(3,3-dimethyl-2-oxopentanoyl)piperidine-2-carboxylate]

Activity value (Brd4/actin of drug-treated cells relative to drug-untreated control) ([1]; BRD4, 1 uM): 0.4
SMILES: Cc1sc2c(c1C)C(c1ccc(Cl)cc1)=N[C@@H](CC(=O)NCCOCCOCCOCCNC(=O)c1nc3c(=O)[nH]c(N)nc3n1Cc1ccc(F)cc1)c1nnc(C)n1-2 [Example 47, 2-Amino-N-(14-((6S)-4-(4-chlorophenyl)-2,3,9-trimethyl-6H-thieno[3,2-f][1,2,4]triazolo[4,3-a][1,4]diazepin-6-yl)-13-oxo-3,6,9-trioxa-12-azatetradec-1-yl)-9-(4-fluorobenzyl)-6-oxo-6,9-dihydro-1H-purine-8-carboxamide]

Activity value (Brd4/actin of drug-treated cells relative to drug-untreated control) [6]: 0.9
SMILES: CC(=O)N[C@@H](CSc1nc2c(=O)[nH]c(N)nc2n1Cc1ccc(F)cc1)C(=O)NCCCOCCOCCOCCCNC(=O)C[C@@H]1N=C(c2ccc(Cl)cc2)c2c(sc(C)c2C)-n2c(C)nnc21 [Example 57, N^2-Acetyl-S-(2-amino-9-(4-fluorobenzyl)-6-oxo-6,9-dihydro-1H-purin-8-yl)-N-(1-((6S)-4-(4-chlorophenyl)-2,3,9-trimethyl-6H-thieno[3,2-f][1,2,4]triazolo[4,3-a][1,4]diazepin-6-yl)-2-oxo-7,10,13-trioxa-3-azahexadecan-16-yl)-L-cysteinamide]

Activity value (Brd4/actin of drug-treated cells relative to drug-untreated control) ([1]; BRD4, 1 uM): 0.8
SMILES: CC(=O)N[C@@H](CSc1nc2c(=O)[nH]c(N)nc2n1Cc1ccc(C)cc1)C(=O)NCCOCCOCCOCCNC(=O)C[C@@H]1N=C(c2ccc(Cl)cc2)c2c(sc(C)c2C)-n2c(C)nnc21 [Example 49, N^2-Acetyl-S-(2-amino-9-(4-methylbenzyl)-6-oxo-6,9-dihydro-1H-purin-8-yl)-N-(14-((6S)-4-(4-chlorophenyl)-2,3,9-trimethyl-6H-thieno[3,2-f][1,2,4]triazolo[4,3-a][1,4]diazepin-6-yl)-13-oxo-3,6,9-trioxa-12-azatetradec-1-yl)-L-cysteinamide]

Activity value (Brd4/actin of drug-treated cells relative to drug-untreated control) ([1]; BRD4, 1 uM): 0.2
SMILES: CC(=O)N[C@@H](CSc1nc2c(=O)[nH]c(N)nc2n1Cc1ccc(Cl)cc1)C(=O)NCCOCCOCCOCCNC(=O)C[C@@H]1N=C(c2ccc(Cl)cc2)c2c(sc(C)c2C)-n2c(C)nnc21 [Example 50, N^2-Acetyl-S-(2-amino-9-(4-chlorobenzyl)-6-oxo-6,9-dihydro-1H-purin-8-yl)-N-(14-((6S)-4-(4-chlorophenyl)-2,3,9-trimethyl-6H-thieno[3,2-f][1,2,4]triazolo[4,3-a][1,4]diazepin-6-yl)-13-oxo-3,6,9-trioxa-12-azatetradec-1-yl)-L-cysteinamide]

Activity value (Brd4/actin of drug-treated cells relative to drug-untreated control) [6]: 0.8
SMILES: Cc1sc2c(c1C)C(c1ccc(Cl)cc1)=N[C@@H](CC(=O)NCCCOCCOCCOCCCNc1nc3c(=O)[nH]c(N)nc3n1Cc1ccc(F)cc1)c1nnc(C)n1-2 [Example 58, N-(3-(2-(2-(3-((2-Amino-9-(4-fluorobenzyl)-6-oxo-6,9-dihydro-1H-purin-8-yl)amino)propoxy)ethoxy)ethoxy)propyl)-2-((6S)-4-(4-chlorophenyl)-2,3,9-trimethyl-6H-thieno[3,2-f][1,2,4]triazolo[4,3-a][1,4]diazepin-6-yl)acetamide]

Activity value (MetAP2/actin of drug-treated cells relative to drug-untreated control) [7]: 0.7
SMILES: CO[C@@H]1[C@H](OC(=O)NCCCOCCOCCOCCCNC(=O)[C@H](CSc2nc3c(=O)[nH]c(N)nc3n2Cc2ccc(F)cc2)NC(C)=O)CC[C@]2(CO2)[C@H]1[C@@]1(C)O[C@@H]1CC=C(C)C [Example 60, (3R,5S,6R)-5-Methoxy-4-((2R,3R)-2-methyl-3-(3-methylbut-2-en-1-yl)oxiran-2-yl)-1-oxaspiro[2.5]oct-6-yl (3-(2-(2-(3-((N-acetyl-S-(2-amino-9-(4-fluorobenzyl)-6-oxo-6,9-dihydro-1H-purin-8-yl)-L-cysteinyl)amino)propoxy)ethoxy)ethoxy)propyl)carbamate]
